Data reported in patent US20110021565A1, “PIPERIDINE DERIVATIVES AS NK3 ANTAGONISTS” (priority 2007, published 2011).
Read-outs that look alike come from different tables or passages of the source.

Biological target: T1, recombinant human NK3 receptor (Homo sapiens, UniProt P29371)
T1 construct: expressed in transfected cells; host or cells: HEK293 cells, transient expression; membrane preparation
T1 sequence (P29371 1-465): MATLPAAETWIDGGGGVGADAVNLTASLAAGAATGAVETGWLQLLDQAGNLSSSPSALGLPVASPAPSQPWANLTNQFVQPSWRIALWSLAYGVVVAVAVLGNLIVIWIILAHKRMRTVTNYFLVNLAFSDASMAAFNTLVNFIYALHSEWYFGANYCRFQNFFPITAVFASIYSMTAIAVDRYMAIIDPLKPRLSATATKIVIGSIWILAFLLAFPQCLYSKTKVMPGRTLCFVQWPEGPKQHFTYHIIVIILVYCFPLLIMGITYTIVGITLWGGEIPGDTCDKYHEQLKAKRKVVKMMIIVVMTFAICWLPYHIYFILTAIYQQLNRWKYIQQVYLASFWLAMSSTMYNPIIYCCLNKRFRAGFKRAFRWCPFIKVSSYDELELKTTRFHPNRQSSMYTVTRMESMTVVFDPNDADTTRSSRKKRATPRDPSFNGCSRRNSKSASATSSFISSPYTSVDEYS
Test: [3H]SR142801 competition binding assay
Outline: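 Membranes from HEK293 cells transiently expressing the receptor (5 μg protein/well) incubated 75 min at RT with [3H]SR142801 at its KD and 10 compound concentrations (0.0003-10 μM), in pH 7.4 Tris buffer with MnCl2, phosphoramidon and BSA. Nonspecific binding defined with 10 μM SB222200; bound radioactivity counted after filtration. Ki from IC50 via Cheng-Prusoff; duplicates.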

[1] = [3H]SR142801, membranes of HEK293 cells transiently expressing recombinant human NK3 receptor, read-out: hNK3 Ki
[2] = representative compounds, [3H]SR142801, HEK293 membranes, human NK3 receptor, read-out: Ki NK3 h

Structure (SMILES) | Ki [1] | Ki [2]
CC(CCN1CCC(N2CCCC2=O)CC1)(C(=O)NC1(c2ccccc2)CC1)c1ccc(Cl)c(Cl)c1 (stereo not shown) [Example 93, 2-(3,4-Dichlorophenyl)-2-methyl-4-[4-(2-oxo-pyrrolidin-1-yl)-piperidin-1-yl]-N-(1-phenyl-cyclopropyl)-butyramide] | 184 nM | –
CC(=O)N(C)C1CCN(CCC(C)(C(=O)N(C)Cc2cccc(Cl)c2)c2ccc(Cl)c(Cl)c2)CC1 (stereo not shown) [Example 105, 4-[4-(Acetyl-methyl-amino)-piperidin-1-yl]-N-(3-chloro-benzyl)-2-(3,4-dichloro-phenyl)-2,N-dimethyl-butyramide] | 8.7 nM | 8.7 nM
CC(=O)N(C)C1CCN(CCC(C)(C(=O)N(C)Cc2ccc(C)cc2)c2ccc(Cl)c(Cl)c2)CC1 (stereo not shown) [Example 107, 4-[4-(Acetyl-methyl-amino)-piperidin-1-yl]-2-(3,4-dichloro-phenyl)-2,N-dimethyl-N-(4-methyl-benzyl)-butyramide] | 10.6 nM | –
CC(=O)N(C)C1CCN(CCC(C)(C(=O)N(C)Cc2ccccc2Cl)c2ccc(Cl)c(Cl)c2)CC1 (stereo not shown) [Example 108, 4-[4-(Acetyl-methyl-amino)-piperidin-1-yl]-N-(2-chloro-benzyl)-2-(3,4-dichloro-phenyl)-2,N-dimethyl-butyramide] | 12 nM | –
CN(Cc1ccc(Cl)cc1)C(=O)C(CCN1CCC(N2CCCC2=O)CC1)c1ccc(F)cc1 (stereo not shown) [Example 111, N-(4-Chloro-benzyl)-2-(4-fluoro-phenyl)-N-methyl-4-[4-(2-oxo-pyrrolidin-1-yl)-piperidin-1-yl]-butyramide] | 408 nM | –
CN(Cc1ccc(Cl)cc1)C(=O)C(CCN1CCC(N2CCCC2=O)CC1)c1ccc(Cl)cc1Cl (stereo not shown) [Example 112, N-(4-Chloro-benzyl)-2-(2,4-dichloro-phenyl)-N-methyl-4-[4-(2-oxo-pyrrolidin-1-yl)-piperidin-1-yl]-butyramide] | 128 nM | –
COc1ccc(C(CCN2CCC(N3CCCC3=O)CC2)C(=O)N(C)Cc2ccc(Cl)cc2)cc1 (stereo not shown) [Example 113, N-(4-Chloro-benzyl)-2-(4-methoxy-phenyl)-N-methyl-4-[4-(2-oxo-pyrrolidin-1-yl)-piperidin-1-yl]-butyramide] | 775 nM | –
CN(Cc1ccc(Cl)cc1)C(=O)C(CCN1CCC(N2CCCC2=O)CC1)c1ccccc1 (stereo not shown) [Example 114, N-(4-Chloro-benzyl)-N-methyl-4-[4-(2-oxo-pyrrolidin-1-yl)-piperidin-1-yl]-2-phenyl-butyramide] | 560 nM | –
CN(Cc1ccc(Cl)cc1)C(=O)C(CCN1CCC(N2CCCC2=O)CC1)c1ccc(Cl)c(Cl)c1 (stereo not shown) [Example 115, N-(4-Chloro-benzyl)-2-(3,4-dichloro-phenyl)-N-methyl-4-[4-(2-oxo-pyrrolidin-1-yl)-piperidin-1-yl]-butyramide] | 8.1 nM | 8.1 nM
CN(Cc1ccc(Cl)cc1)C(=O)C(CCN1CCC(N2CCCC2=O)CC1)c1ccc(F)c(F)c1 (stereo not shown) [Example 116, N-(4-Chloro-benzyl)-2-(3,4-difluoro-phenyl)-N-methyl-4-[4-(2-oxo-pyrrolidin-1-yl)-piperidin-1-yl]-butyramide] | 198 nM | –
CN(Cc1ccc(Cl)cc1)C(=O)C(CCN1CCC(N2CCCC2=O)CC1)c1ccc(Cl)nc1 (stereo not shown) [Example 117, N-(4-Chloro-benzyl)-2-(6-chloro-pyridin-3-yl)-N-methyl-4-[4-(2-oxo-pyrrolidin-1-yl)-piperidin-1-yl]-butyramide] | 387 nM | –
CC(NC(=O)C(C)(CCN1CCC(N2CCCC2=O)CC1)c1ccc(Cl)c(Cl)c1)c1ccc(F)c(C(F)(F)F)c1 (stereo not shown) [Example 125, 2-(3,4-Dichloro-phenyl)-N-[1-(4-fluoro-3-trifluoromethyl-phenyl)-ethyl]-2-methyl-4-[4-(2-oxo-pyrrolidin-1-yl)-piperidin-1-yl]-butyramide] | 25.4 nM | –
CC(c1ccc(F)c(C(F)(F)F)c1)N(C)C(=O)C(C)(CCN1CCC(N2CCCC2=O)CC1)c1ccc(Cl)c(Cl)c1 (stereo not shown) [Example 126, 2-(3,4-Dichloro-phenyl)-N-[1-(4-fluoro-3-trifluoromethyl-phenyl)-ethyl]-2,N-dimethyl-4-[4-(2-oxo-pyrrolidin-1-yl)-piperidin-1-yl]-butyramide] | 30.3 nM | –
CC[C@@H](NC(=O)C(C)(CCN1CCC(N2CCCC2=O)CC1)c1ccc(Cl)c(Cl)c1)c1ccccc1 (stereo partly drawn) [Example 128, 2-(3,4-Dichloro-phenyl)-2-methyl-4-[4-(2-oxo-pyrrolidin-1-yl)-piperidin-1-yl]-N-((R)-1-phenyl-propyl)-butyramide] | 90.2 nM | –
CC(=O)N(C)C1CCN(CCC(C)(C(=O)NC(C)c2ccc(F)c(C(F)(F)F)c2)c2ccc(Cl)c(Cl)c2)CC1 (stereo not shown) [Example 132, 4-[4-(Acetyl-methyl-amino)-piperidin-1-yl]-2-(3,4-dichloro-phenyl)-N-[1-(4-fluoro-3-trifluoromethyl-phenyl)-ethyl]-2-methyl-butyramide] | 46.2 nM | –

Second part, the compound after the results:

Ki [1] | Ki [2] | Structure (SMILES)
4.7 nM | 4.7 nM | CC(CCN1CCC(N2CCCC2=O)CC1)(C(=O)NC(c1ccccc1)C(F)(F)F)c1ccc(Cl)c(Cl)c1 (stereo not shown) [Example 95, 2-(3,4-Dichloro-phenyl)-2-methyl-4-[4-(2-oxo-pyrrolidin-1-yl)-piperidin-1-yl]-N-(2,2,2-trifluoro-1-phenyl-ethyl)-butyramide]
7.2 nM | 7.2 nM | CC(CCN1CCC(N2CCCC2=O)CC1)(C(=O)NC(c1ccc(F)cc1)C(F)(F)F)c1ccc(Cl)c(Cl)c1 (stereo not shown) [Example 96, 2-(3,4-Dichloro-phenyl)-2-methyl-4-[4-(2-oxo-pyrrolidin-1-yl)-piperidin-1-yl]-N-[2,2,2-trifluoro-1-(4-fluoro-phenyl)-ethyl]-butyramide]
8.1 nM | – | CC(CCN1CCC(N2CCCC2=O)CC1)(C(=O)NC(c1ccc(C(F)(F)F)cc1)C(F)(F)F)c1ccc(Cl)c(Cl)c1 (stereo not shown) [Example 97, 2-(3,4-Dichloro-phenyl)-2-methyl-4-[4-(2-oxo-pyrrolidin-1-yl)-piperidin-1-yl]-N-[2,2,2-trifluoro-1-(4-trifluoromethyl-phenyl)-ethyl]-butyramide]
5.8 nM | 5.8 nM | CC(=O)N(C)C1CCN(CCC(C)(C(=O)NCc2ccc(C(F)(F)F)c(F)c2)c2ccc(Cl)c(Cl)c2)CC1 (stereo not shown) [Example 99, 4-[4-(Acetyl-methyl-amino)-piperidin-1-yl]-2-(3,4-dichloro-phenyl)-N-(3-fluoro-4-trifluoromethyl-benzyl)-2-methyl-butyramide]
3 nM | 3 nM | CC(=O)N(C)C1CCN(CCC(C)(C(=O)N(C)Cc2ccc(Cl)c(Cl)c2)c2ccc(Cl)c(Cl)c2)CC1 (stereo not shown) [Example 100, 4-[4-(Acetyl-methyl-amino)-piperidin-1-yl]-N-(3,4-dichloro-benzyl)-2-(3,4-dichloro-phenyl)-2,N-dimethyl-butyramide]
6.8 nM | 6.8 nM | CC(=O)N(C)C1CCN(CCC(C)(C(=O)NCc2ccc(Cl)c(Cl)c2)c2ccc(Cl)c(Cl)c2)CC1 (stereo not shown) [Example 101, 4-[4-(Acetyl-methyl-amino)-piperidin-1-yl]-N-(3,4-dichloro-benzyl)-2-(3,4-dichloro-phenyl)-2-methyl-butyramide]
5.1 nM | 5.1 nM | CC(=O)N(C)C1CCN(CCC(C)(C(=O)N(C)Cc2ccc(Cl)cc2)c2ccc(Cl)c(Cl)c2)CC1 (stereo not shown) [Example 102, 4-[4-(Acetyl-methyl-amino)-piperidin-1-yl]-N-(4-chloro-benzyl)-2-(3,4-dichloro-phenyl)-2,N-dimethyl-butyramide]
2.2 nM | 2.2 nM | CC(=O)N(C)C1CCN(CCC(C)(C(=O)N(C)Cc2ccc(Cl)c(C(F)(F)F)c2)c2ccc(Cl)c(Cl)c2)CC1 (stereo not shown) [Example 103, 4-[4-(Acetyl-methyl-amino)-piperidin-1-yl]-N-(4-chloro-3-trifluoromethyl-benzyl)-2-(3,4-dichloro-phenyl)-2,N-dimethyl-butyramide]
2.3 nM | 2.3 nM | CC(=O)N(C)C1CCN(CCC(C)(C(=O)N(C)Cc2ccc(F)c(C(F)(F)F)c2)c2ccc(Cl)c(Cl)c2)CC1 (stereo not shown) [Example 104, 4-[4-(Acetyl-methyl-amino)-piperidin-1-yl]-2-(3,4-dichloro-phenyl)-N-(4-fluoro-3-trifluoromethyl-benzyl)-2,N-dimethyl-butyramide]
5.1 nM | 5.1 nM | CC(=O)N(C)C1CCN(CCC(C)(C(=O)N(C)Cc2ccc(C(F)(F)F)cc2)c2ccc(Cl)c(Cl)c2)CC1 (stereo not shown) [Example 106, 4-[4-(Acetyl-methyl-amino)-piperidin-1-yl]-2-(3,4-dichloro-phenyl)-2,N-dimethyl-N-(4-trifluoromethyl-benzyl)-butyramide]
5.2 nM | 5.2 nM | CC[C@H](NC(=O)C(C)(CCN1CCC(N2CCCC2=O)CC1)c1ccc(Cl)c(Cl)c1)c1ccccc1 (stereo partly drawn) [Example 127, 2-(3,4-Dichloro-phenyl)-2-methyl-4-[4-(2-oxo-pyrrolidin-1-yl)-piperidin-1-yl]-N-((S)-1-phenyl-propyl)-butyramide]
3.4 nM | 3.4 nM | CC(CCN1CCC(N2CCCC2=O)CC1)(C(=O)NCc1ccc(F)c(C(F)(F)F)c1)c1ccc(Cl)c(Cl)c1 (stereo not shown) [Example 131, 2-(3,4-Dichloro-phenyl)-N-(4-fluoro-3-trifluoromethyl-benzyl)-2-methyl-4-[4-(2-oxo-pyrrolidin-1-yl)-piperidin-1-yl]-butyramide]
